Assay results: US20180163250A1, “Screening Broths Comprising Esculatin Compounds for the Detection of Specific Microorganisms” (Neogen Corporation, priority 2016, published 2018)

Key:
[1] = tested on: methicillin resistant staphylococcus aureus strains; test: Growth and initial color change in MRSA screening broth (LAB588) containing the substrate; assay type: cell-based; settings: for Initial color change indicating the presence of MRSA: LAB588 broth with cefoxitin, 100-1000 cfu
Method: (§1) CHE-phosphate, and 3,4-cyclohexenoesculatin diphosphate were dissolved at 200 mg/ml in a 50:50 mixture of dimethylformamide and water. 5-bromo-4-chloroindoxyl phosphate was dissolved at 200 mg/ml in a 50:50 mixture of ethanol and water. The mixtures of compounds were added individually to a MRSA broth (LAB588; Lab M limited) pre-dispensed to 10 ml volumes, after supplementation with cefoxitin selective agent, as 25 μL additions from the prepared stock solutions.
(§2) A 0.5 Macfarlane standard suspension of methicillin resistant staphylococcus aureus strains were prepared from 18-24 h cultures grown in tryptic soy broth (LAB004; Lab M Limited) at 37° C. These were diluted and added to the MRSA broth samples in an amount sufficient to inoculate each sample with 100-1000 colony forming units (cfu). Target concentration was achieved by diluting a culture to a target level and inoculating sets of tubes at different inoculum dilutions so as to achieve the target range. The actual quantity inoculated was confirmed by plating 50 μl of the dilution onto Tryptone soy agar (LAB011) and incubating the plates for 18-24 h at 37° C. and counting the resulting colonies. This information was used to determine which tubes had been inoculated within the target dosing range.
(§3) The broth is designed to selectively indicate a positive presence of MRSA by a yellow color, or a presumptive positive presence of MRSA by an orange color (Table 1). To the CHE-phosphate and 3,4-cyclohexenoesculatin diphosphate was added 50 μL of a 250/mg/ml stock solution of Ferric ammonium citrate and samples were allowed to incubate at ambient temperature for 5 minutes.

[2] = tested on: MRSA phosphatase activity; test: Confirmatory enzymatic test for MRSA phosphatase activity in the MRSA screening broth (initial investigation); assay type: cell-based, staphylococcus aureus; settings: substrate and ferric ammonium citrate added at end of incubation, or substrate included before incubation
Text: MRSA detection broths based on the principle of mannitol and trehalose utilization and cefoxitin were designed to be a selective system for high throughput screening of clinical MRSA samples. The broths allow high volume screening of the majority of patient samples by a low cost method with confirmation of the few presumptive positive samples by rapid methods. The broths achieved good performance relative to Mannitol salts broth enrichment and/or direct plating (>98% sensitivity and >96 selectivity). In order to further enhance the selectivity of this broth system, the use of a confirmatory enzymatic test targeted at the MRSA phosphatase activity was investigated. […] Fluorogenic phosphatase substrate, although giving a confirming reaction, suffered from the disadvantage of nonspecific fluorescence in the broth probably due to compound stability, and also necessitated the use of non-auto fluorescent glass or plastic tubes. […]

[3] = tested on: methicillin resistant coagulase negative staphylococcus (clinical isolates); test: CHE-phosphate in MRSA broth before and after FAC: coagulase negative staphylococci; assay type: cell-based; settings: for Broth color after addition of FAC: 5 minutes at ambient temperature after FAC; for Broth color before addition FAC: LAB588, 37° C. for 22 hours
Text: (§4) Scheme 2 above provides a pictorial representation of CHE-phosphate discriminating between methicillin resistant staphylococcus aureus and methicillin resistant coagulase negative Staphylococcus. The single phosphate group from CHE-phosphate is removed by the phosphatase activity of methicillin resistant staphylococcus aureus, but not by the coagulase negative staphylococcus, which lack this phosphatase activity. Addition of ferric ammonium citrate produces the dark, insoluble iron-3,4-cyclohexenoesculatin complex indicating the presence of methicillin resistant staphylococcus aureus. The dark complex is not formed between ferric ammonium citrate and CHE-phosphate, and therefore indicates the absence of phosphatase activity. Accordingly, a lack of a dark precipitate indicates the absence of methicillin resistant staphylococcus aureus.
(§5) A panel of MRSA strains and coagulase negative staphylococci (clinical isolates) were cultured and tested in MRSA broth with CHE-phosphate using the same methodology as Example 2 CHE-phosphate was Dissolved at 200 mg/ml in 50:50 mixture of dimethylformamide and water. LAB588 (MRSA broth, Lab M limited) pre-dispensed to 10 ml volumes was supplemented with 25 μL aliquots from the prepared stock solution. A 0.5 Macfarlane standard suspension of methicillin resistant staphylococcus aureus and coagulase negative staphylococci strains were prepared from 18-24 h cultures grown in tryptic soy broth (LAB004, Lab M Limited) at 37° C. These were diluted to an amount sufficient to inoculate each sample with 100-1000 cfu. Samples were then incubated at 37° C. for 22 hours and observed for growth and color change. 50 μL aliquots of a 250 mg/ml stock solution of Ferric ammonium citrate (FAC) was then added to each sample and allowed to incubate at ambient temperature for 5 minutes. The samples were then observed for blackening indicating phosphatase activity by the presence of free 3,4-cyclohexenoesculatin (Table 3).

[4] = tested on: methicillin resistant staphylococcus aureus; test: CHE-phosphate in MRSA broth before and after FAC: MRSA strains; assay type: cell-based; settings: for Broth color after addition of FAC: 5 minutes at ambient temperature after FAC; for Broth color before addition FAC: LAB588, 37° C. for 22 hours
Text: as §4, §5

[5] = tested on: phosphatase activity of methicillin resistant staphylococcus aureus; test: Blackening after addition of ferric ammonium citrate (free CHE, phosphatase activity) in MRSA broth; assay type: cell-based; settings: for blackening after the addition of ferric ammonium citrate indicating the presence of free 3,4-cyclohexenoesculatin: 5 minutes at ambient temperature after FAC
Method: as §1, §2, §3

Structure (SMILES): O=c1oc2cc(O)c(OP(=O)(O)O)cc2c2c1CCCC2 [CHE-phosphate, sodium 3,4-cyclohexenoesculatin-6-phosphate (sodium 3-hydroxy-6-oxo-7,8,9,10-tetrahydro-6H-benzo[c]chromen-2-yl phosphate)]
- Initial color change indicating the presence of MRSA ([1]; MRSA 3): Growth (yellow)
- Initial color change indicating the presence of MRSA ([1]; MRSA 15): Growth (yellow)
- Initial color change indicating the presence of MRSA ([1]; MRSA 15A (clinical isolate)): Growth (yellow)
- Initial color change indicating the presence of MRSA ([1]; MRSA 15B (clinical isolate)): Growth (yellow)
- Initial color change indicating the presence of MRSA ([1]; MRSA 15C (clinical isolate)): Growth (orange)
- Initial color change indicating the presence of MRSA ([1]; MRSA 16A (clinical isolate)): Growth (orange)
- Initial color change indicating the presence of MRSA ([1]; MRSA 16B (clinical isolate)): Growth (orange)
- Initial color change indicating the presence of MRSA ([1]; MRSA 16C (clinical isolate)): Growth (orange)
- Inhibition of the growth of MRSA ([1]; MRSA broth LAB588, summary of Table 1): not inhibitory
- Initial color change indicating the presence of MRSA ([1]; S. aureus NCTC 12493): Growth (yellow)
- Blackening reaction in the MRSA screening broth [2]: readily observable blackening reaction
- Broth color after addition of FAC ([3]; CNS 22): Orange
- Broth color before addition FAC ([3]; CNS 22): Orange
- Broth color after addition of FAC ([3]; CNS 28): yellow
- Broth color before addition FAC ([3]; CNS 28): yellow
- Broth color after addition of FAC ([3]; CNS 33): orange
- Broth color before addition FAC ([3]; CNS 33): orange
- Broth color after addition of FAC ([4]; MRSA 3): Black
- Broth color before addition FAC ([4]; MRSA 3): Yellow
- Broth color after addition of FAC ([4]; MRSA 15): Black
- Broth color before addition FAC ([4]; MRSA 15): Yellow
- Broth color after addition of FAC ([4]; MRSA 16A): Black
- Broth color before addition FAC ([4]; MRSA 16A): Orange
- Broth color after addition of FAC ([4]; MRSA 16B): Black
- Broth color before addition FAC ([4]; MRSA 16B): Orange
- Broth color after addition of FAC ([4]; MRSA 75): Black
- Broth color before addition FAC ([4]; MRSA 75): Orange
- Broth color after addition of FAC ([4]; S. aureus NCTC 12493): Black
- Broth color before addition FAC ([4]; S. aureus NCTC 12493): Yellow
- Specificity for the phosphatase enzyme of MRSA versus methicillin resistant coagulase negative staphylococci ([4]; summary of Table 3): specific for the phosphatase enzyme of MRSA
- blackening after the addition of ferric ammonium citrate indicating the presence of free 3,4-cyclohexenoesculatin ([5]; MRSA 3): Blackening
- blackening after the addition of ferric ammonium citrate indicating the presence of free 3,4-cyclohexenoesculatin ([5]; MRSA 15): Blackening
- blackening after the addition of ferric ammonium citrate indicating the presence of free 3,4-cyclohexenoesculatin ([5]; MRSA 15A (clinical isolate)): Blackening
- blackening after the addition of ferric ammonium citrate indicating the presence of free 3,4-cyclohexenoesculatin ([5]; MRSA 15B (clinical isolate)): Blackening
- blackening after the addition of ferric ammonium citrate indicating the presence of free 3,4-cyclohexenoesculatin ([5]; MRSA 15 C (clinical isolate)): Blackening
- blackening after the addition of ferric ammonium citrate indicating the presence of free 3,4-cyclohexenoesculatin ([5]; MRSA 16A (clinical isolate)): Blackening
- blackening after the addition of ferric ammonium citrate indicating the presence of free 3,4-cyclohexenoesculatin ([5]; MRSA 16B (clinical isolate)): Blackening
- blackening after the addition of ferric ammonium citrate indicating the presence of free 3,4-cyclohexenoesculatin ([5]; MRSA 16 C (clinical isolate)): Blackening
- blackening after the addition of ferric ammonium citrate indicating the presence of free 3,4-cyclohexenoesculatin ([5]; S. aureus NCTC 12493): Blackening
- Specificity of enzymatic phosphatase activity for the substrate ([5]; summary of Table 2): specific
